# Data: publication PMC9602571, “Discovery of a Dual SENP1 and SENP2 Inhibitor” (International Journal of Molecular Sciences, 2022)
# pIC50: −log10 of the molar value. Where two headings read alike, the source gives them in different places.
# How the values were obtained:
# SENP1 = molecular target: T1, SENP1 (Homo sapiens, UniProt Q9P0U3); experiment: Fluorogenic SENP1 assay, SUMO1-AMC substrate; assay type: biochemical; conditions: for LE (ligand efficiency): calculated: 1.4(-logIC50)/N
# T1 construct: Human recombinant, His6-SENP1 Catalytic Domain; His6 (N); purchased Boston Biochem (Bio-Techne AG) E-700
# T1 sequence (Q9P0U3 450-613 limits assumed): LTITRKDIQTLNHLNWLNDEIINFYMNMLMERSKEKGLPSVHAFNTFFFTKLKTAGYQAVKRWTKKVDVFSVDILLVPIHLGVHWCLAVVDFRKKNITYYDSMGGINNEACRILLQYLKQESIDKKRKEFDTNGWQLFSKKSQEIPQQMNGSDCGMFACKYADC
# Description: Human recombinant, His6-SENP1 Catalytic Domain (Boston Biochem Cat# E-700, Bio-Techne AG, Zug, Switzerland) was prepared in reaction buffer (50 mM HEPES, 150 mM NaCl, 0.5 mM EDTA, 1 mM DTT, pH 7.5, 0.01% CHAPS). To this solution, a 20 mM or 50 mM inhibitor stock solution in DMSO was added and the mixture was incubated for 15 min at ambient temperature. […] The slope was calculated using Excel and the curve fits were performed using GraphPad Prism7 with a four-parameter least-squares fit. The final reaction conditions contained 0.02 nM SENP1 and 300 nM SUMO1/2 or 3-AMC).
# [1] = SUMO1-AMC 300 nM, 0.02 nM SENP1, interval in parentheses, read-out: IC50 SENP1
# [2] = screening library samples, SUMO1-AMC, read-out: IC50 SENP1 of hit molecules
SMILES,pIC50 (SENP1; [1]),melting point,LE (ligand efficiency) (SENP1),other results
"COc1ccc(-c2cn(CC(=O)N3c4ccccc4NC(=O)C34CCCC4)nn2)cc1 [Compound 49, 1′-{2-[4-(4-Methoxyphenyl)-1H-1,2,3-triazol-1-yl]acetyl}-3′,4′-dihydro-1′H-spiro[cyclopentane-1,2′-quinoxalin]-3′-one]",4.89,249 °C (dec.),,
"O=C(O)Cc1cn(CC(=O)N2c3ccccc3NC(=O)C23CCCC3)nn1 [Compound 52, 2-[1-(2-Oxo-2-{3′-oxo-3′,4′-dihydro-1′H-spiro[cyclopentane-1,2′-quinoxalin]-1′-yl}ethyl)-1H-1,2,3-triazol-4-yl]acetic acid]",< 4.00,230 °C (dec.),,
"O=C1CNc2ccccc2N1 [Compound 25, 1,2,3,4-tetrahydroquinoxalin-2-one]",< 3.30,,,
CC1(C)C(=O)Nc2ccccc2N1C(=O)CN1CCN(c2ccccc2)CC1 [Compound S2],4.00,,,
"COCCc1cn(CC(=O)N2c3ccccc3NC(=O)C23CCCC3)nn1 [Compound 53, 1′-{2-[4-(2-Methoxyethyl)-1H-1,2,3-triazol-1-yl]acetyl}-3′,4′-dihydro-1′H-spiro[cyclopentane-1,2′-quinoxalin]-3′-one]",< 4.00,,,
"O=C1Nc2cscc2NC12CCCCC2 [Compound 36, 3′,4′-Dihydro-1′H-spiro[cyclohexane-1,2′-thieno [3,4-b]pyrazin]-3′-one]",4.21,,0.39,
CC1(C)C(=O)Nc2ccccc2N1C(=O)CN1CCc2ccccc21 [Compound S4],3.82,,,
"O=C(O)c1cccc(-c2cn(CC(=O)N3c4ccccc4NC(=O)C34CCCC4)nn2)c1 [Compound 47, 3-[1-(2-Oxo-2-{3′-oxo-3′,4′-dihydro-1′H-spiro[cyclopentane-1,2′-quinoxalin]-1′-yl}ethyl)-1H-1,2,3-triazol-4-yl]benzoic acid]",4.54,272 °C (dec.),,
O=C(CN1CCN(c2ccccc2)CC1)N1c2ccccc2NC(=O)C12CCCC2 [Compound S1],3.82,,,
CN(CC(=O)N1c2ccccc2NC(=O)C1(C)C)Cc1ccccc1 [Compound S5],< 3.70,,,
"O=C(Cn1cc(-c2ccccn2)nn1)N1c2ccccc2NC(=O)C12CCCC2 [Compound 50, 1′-{2-[4-(Pyridin-2-yl)-1H-1,2,3-triazol-1-yl]acetyl}-3′,4′-dihydro-1′H-spiro[cyclopentane-1,2′-quinoxalin]-3′-one]",< 3.70,218 °C (dec.),,SENP1 inhibition in words (SENP1; at 200 µM): only slight inhibition
"O=C1Nc2ccccc2NC12CCC2 [Compound 29, 3′,4’-Dihydro-1′H-spiro[cyclobutane-1,2′-quinoxalin]-3′-one]",4.18,,0.42,
"O=C1Nc2ccccc2NC12CCCCCCC2 [Compound 28, 3′,4′-Dihydro-1′H-spiro[cyclooctane-1,2′-quinoxalin]-3′-one]",4.29,,0.33,
"O=C(Cn1cc(C2CCCCC2)nn1)N1c2ccccc2NC(=O)C12CCCC2 [Compound 45, 1′-[2-(4-Cyclohexyl-1H-1,2,3-triazol-1-yl)acetyl]-3′,4′-dihydro-1′H-spiro[cyclopentane-1,2′-quinoxalin]-3′-one]",4.72,205 °C (dec.),,
"O=C1Nc2ncccc2NC12CCCC2 [Compound 34, 3′,4′-Dihydro-1′H-spiro[cyclopentane-1,2′-pyrido [2,3-b]pyrazin]-3′-one]",< 3.30,,,SENP1 activity in words (SENP1; up to 500 µM): complete loss of activity
"O=C1Nc2cscc2NC12CCCC2 [Compound 35, 3′,4′-Dihydro-1′H-spiro[cyclopentane-1,2′-thieno [3,4-b]pyrazin]-3′-one]",4.43,126 to 130 °C (dec.),0.44,
"COC(=O)c1cccc2c1NC(=O)C1(CCCC1)N2 [Compound 38, Methyl 3′-oxo-3′,4′-dihydro-1′H-spiro[cyclopentane-1,2′-quinoxaline]-5′-carboxylate]",4.21,147 to 149 °C,0.33,
CN(CC(=O)N1c2ccccc2NC(=O)C1(C)C)c1ccccc1 [Compound S6],< 3.70,,,
"COc1ccc2c(c1)NC1(CCCC1)C(=O)N2 [Compound 39, 7′-Methoxy-3′,4′-dihydro-1′H-spiro[cyclopentane-1,2′-quinoxalin]-3′-one]",3.70,224 to 227 °C (dec.),0.32,
"O=C(Cn1cc(-c2ccccc2)nn1)N1c2ccccc2NC(=O)C12CCCC2 [Compound 44, 1′-[2-(4-Phenyl-1H-1,2,3-triazol-1-yl)acetyl]-3′,4′-dihydro-1′H-spiro[cyclopentane-1,2′-quinoxalin]-3′-one]",4.64,256 °C (dec.),,

SMILES,pIC50 (SENP1; [1]),melting point,LE (ligand efficiency) (SENP1),other results
"O=C(Cn1cc(Cc2ccccc2)nn1)N1c2ccccc2NC(=O)C12CCCC2 [Compound 46, 1′-[2-(4-Benzyl-1H-1,2,3-triazol-1-yl)acetyl]-3′,4′-dihydro-1′H-spiro[cyclopentane-1,2′-quinoxalin]-3′-one]",4.42,203 °C (dec.),,
"COC(=O)c1ccc(-c2cn(CC(=O)N3c4ccccc4NC(=O)C34CCCC4)nn2)cc1 [Compound 48, Methyl 4-[1-(2-oxo-2-{3′-oxo-3′,4′-dihydro-1′H-spiro[cyclopentane-1,2′-quinoxalin]-1′-yl}ethyl)-1H-1,2,3-triazol-4-yl]benzoate]",5.12,263 °C (dec.),,
"O=C(Cn1cc(C2CC2)nn1)N1c2ccccc2NC(=O)C12CCCC2 [Compound 51, 1′-[2-(4-Cyclopropyl-1H-1,2,3-triazol-1-yl)acetyl]-3′,4′-dihydro-1′H-spiro[cyclopentane-1,2′-quinoxalin]-3′-one]",< 3.70,,,
Cc1c(C(=O)N2CCC(C)CC2)nnn1-c1cccc2c1CCN(Cc1ccccc1)C2 [Compound 12],,,,pIC50 (SENP1; [2]): 4.57
"O=C1Nc2ccccc2NC12COC2 [Compound 30, 3′,4′-Dihydro-1′H-spiro[oxetane-3,2′-quinoxalin]-3′-one]",4.09,165 to 170 °C (dec.),0.41,
"COc1cccc2c1NC(=O)C1(CCCC1)N2 [Compound 37, 5′-Methoxy-3′,4′-dihydro-1′H-spiro[cyclopentane-1,2′-quinoxalin]-3′-one]",3.96,176 to 180 °C,0.34,
"c1ccc2c(c1)NCC1(CCCC1)N2 [Compound 33, 3′,4′-Dihydro-1′H-spiro[cyclopentane-1,2′-quinoxaline]]",< 3.30,80 to 82 °C,,
CC1CCn2cc(C(=O)NC3CCn4cc(-c5ccc(F)cc5F)nc4C3)nc2C1 (centres unmarked) [Compound 13],,,,pIC50 (SENP1; [2]): 4.55
"CC1(C)Nc2ccccc2NC1=O [Compound 16, 3,3-Dimethyl-1,2,3,4-tetrahydroquinoxalin-2-one]",< 3.30,178 °C,,inhibition at 500 µM (SENP1): ~50%
COc1ccc(N(C)CC(=O)N2c3ccccc3NC(=O)C2(C)C)cc1 [Compound S7],< 3.70,,,
"O=C1NC2(CCCC2)Nc2ccccc21 [Compound 32, 3′,4′-Dihydro-1′H-spiro[cyclopentane-1,2′-quinazolin]-4′-one]",,233 to 238 °C (dec.),,
"O=C(Cn1nnnc1-c1ccccc1)N1c2ccccc2NC(=O)C12CCCC2 [Compound 54, 1′-[2-(5-Phenyl-1H-1,2,3,4-tetrazol-1-yl)acetyl]-3′,4′-dihydro-1′H-spiro[cyclopentane-1,2′-quinoxalin]-3′-one]",4.30,197 to 202 °C (dec.),,
CC1(C)C(=O)Nc2ccccc2N1C(=O)COc1ccccc1 [Compound S3],< 3.70,,,
"O=C1Nc2ccccc2OC12CCCC2 [Compound 26, 3,4-Dihydrospiro [1,4-benzoxazine-2,1′-cyclopentan]-3-one]",4.11,157 to 162 °C,0.38,
"O=C1Nc2ccccc2NC12CCCCC2 [Compound 27, 3′,4′-Dihydro-1′H-spiro[cyclohexane-1,2′-quinoxalin]-3′-one]",3.58,230 to 234 °C (dec.),0.31,
"O=C1Nc2ccccc2NC12CCOCC2 [Compound 31, 3′,4′-Dihydro-1′H-spiro[oxane-4,2′-quinoxalin]-3′-one]",3.63,211 to 226 °C (dec.),0.32,
"O=C1CN(C(=O)Cn2nnc(-c3ccccc3)n2)c2ccccc2N1 [Compound 24, 4-[2-(5-Phenyl-2H-1,2,3,4-tetrazol-2-yl)acetyl]-1,2,3,4-tetrahydroquinoxalin-2-one]",4.11,231 °C (dec.),,reduced inhibition by a factor (SENP1; compared to hit compound 11): 10
"O=C1Nc2ccccc2NC12CCCC2 [Compound 15, 3′,4′-Dihydro-1′H-spiro[cyclopentane-1,2′-quinoxalin]-3′-one]",3.94,174 °C,0.37,
"CCCCCCCC(=O)N1c2ccccc2NC(=O)C12CCCC2 [Compound 57, 1′-Octanoyl-3′,4′-dihydro-1′H-spiro[cyclopentane-1,2′-quinoxalin]-3′-one]",5.18,67 to 70 °C,,
